Reference: ChEMBL document CHEMBL4422633, “Antioxidant-Inspired Drug Discovery: Antitumor Metabolite Is Formed in Situ from a Hydroxycinnamic Acid Derivative upon Free-Radical Scavenging” (J Med Chem, 2019)

Tests used:
[1] = Cytotoxicity against mouse L5178 cells assessed as reduction in cell viability after 72 hrs by MTT assay; type: functional, cell-based; settings: L5178, 72 h
[2] = Cytotoxicity against mouse L5178B1 cells transfected with pHa MDR1/A retrovirus assessed as reduction in cell viability after 72 hrs by MTT assay; type: functional, cell-based; settings: MDR1, 72 h
[3] = Antioxidant activity assessed as hydroxyl radical scavenging activity by measuring inhibition of damage to 2-deoxy-D-ribose after 3 mins by TBA-based Fenton reaction assay; type: functional

Compound COC(=O)/C=C/c1ccc(O)c(O)c1 [METHYLCAFFEATE] has an IC50 [1] of 104 µM and an IC50 [2] of 113 µM.

CC(C)(C)/[N+]([O-])=C/c1ccc(S(=O)(=O)O)cc1S(=O)(=O)O gave an IC50 [3] of 1830 µM.

In the case of O=Cc1ccc(O)cc1 [4-HYDROXYBENZALDEHYDE], the IC50 [1] is reported as > 150 µM and the IC50 [2] is reported as > 150 µM.
